Data from ChEMBL document CHEMBL4610081, “Anti-inflammatory Metabolites from Chaetomium nigricolor” (J Nat Prod, 2020).
Calls of active or inactive are those of the source. The rule behind the calls is not given here.

Tests used:
RAW264.7 [1] = test: Trans-suppression of NFkappaB in mouse RAW264.7 cells assessed as LPS-induced nuclear-p50 level at 10 uM preincubated for 3 hrs followed by LPS-stimulation and measured after 1 hr by Western blot analysis (reference value: 3.2); assay type: cell-based
RAW264.7 [2] = test: Inhibition of LPS-induced JNK phosphorylation in mouse RAW264.7 cell at 2.5 uM preincubated for 3 hrs followed by LPS-stimulation and measured after 1 hr by Western blot analysis (reference value: 8.88); assay type: cell-based
RAW264.7 [3] = test: Inhibition of LPS-induced p38 MAPK protein expression in mouse RAW264.7 cell at 10 uM preincubated for 3 hrs followed by LPS-stimulation and measured after 1 hr by Western blot analysis (reference value: 1.1); assay type: functional
RAW264.7 [4] = test: Inhibition of LPS-induced JNK phosphorylation in mouse RAW264.7 cell preincubated for 3 hrs followed by LPS-stimulation and measured after 1 hr by Western blot analysis; assay type: cell-based
RAW264.7 [5] = test: Trans-suppression of NFkappaB in mouse RAW264.7 cells assessed as LPS-induced IKB-apha degradation at 2.5 uM preincubated for 3 hrs followed by LPS-stimulation and measured after 1 hr by Western blot analysis (reference value: 0.29); assay type: cell-based
RAW264.7 [6] = test: Trans-suppression of NFkappaB in mouse RAW264.7 cells assessed as reduction in LPS-induced DNA binding at 2.5 to 10 uM preincubated for 3 hrs followed by LPS-stimulation and measured after 1 hr by TransAM assay; assay type: cell-based
RAW264.7 [7] = test: Trans-suppression of NFkappaB in mouse RAW264.7 cells assessed as LPS-induced IKB-apha degradation at 10 uM preincubated for 3 hrs followed by LPS-stimulation and measured after 1 hr by Western blot analysis (reference value: 0.29); assay type: cell-based
RAW264.7 [8] = test: Cytotoxicity against mouse RAW264.7 cells assessed as reduction cell viability at 20 uM by MTT assay; assay type: cell-based; conditions: raw264.7, 20 µM
RAW264.7 [9] = test: Inhibition of LPS-induced JNK protein expression in mouse RAW264.7 cell at 2.5 uM preincubated for 3 hrs followed by LPS-stimulation and measured after 1 hr by Western blot analysis (reference value: 1.21); assay type: functional
RAW264.7 [10] = test: Trans-suppression of NFkappaB in mouse RAW264.7 cells assessed as LPS-induced nuclear-p50 level at 2.5 uM preincubated for 3 hrs followed by LPS-stimulation and measured after 1 hr by Western blot analysis (reference value: 3.2); assay type: cell-based
RAW264.7 [11] = test: Antiinflammatory activity against mouse RAW264.7 cells assessed as LPS-induced COX-2 mRNA expression at 2.5 uM preincubated for 3 hrs followed by LPS-stimulation and measured after 24 hrs by RT-PCR analysis (reference value: 14.39); assay type: functional
RAW264.7 [12] = test: Trans-suppression of NFkappaB in mouse RAW264.7 cells assessed as LPS-induced nuclear-p65 level at 2.5 uM preincubated for 3 hrs followed by LPS-stimulation and measured after 1 hr by Western blot analysis (reference value: 3.3); assay type: cell-based
RAW264.7 [13] = test: Trans-suppression of NFkappaB in mouse RAW264.7 cells assessed as LPS-induced IKB-apha phosphorylation at 2.5 uM preincubated for 3 hrs followed by LPS-stimulation and measured after 1 hr by Western blot analysis (reference value: 6.04); assay type: cell-based
RAW264.7 [14] = test: Trans-suppression of NFkappaB in mouse RAW264.7 cells assessed as LPS-induced IKB-apha phosphorylation at 10 uM preincubated for 3 hrs followed by LPS-stimulation and measured after 1 hr by Western blot analysis (reference value: 6.04); assay type: cell-based
RAW264.7 [15] = test: Antiinflammatory activity against mouse RAW264.7 cells assessed as LPS-induced COX-2 mRNA expression at 5 uM preincubated for 3 hrs followed by LPS-stimulation and measured after 24 hrs by RT-PCR analysis (reference value: 14.39); assay type: functional
RAW264.7 [16] = test: Trans-suppression of NFkappaB in mouse RAW264.7 cells assessed as LPS-induced nuclear-p65 level at 10 uM preincubated for 3 hrs followed by LPS-stimulation and measured after 1 hr by Western blot analysis (reference value: 3.3); assay type: cell-based
RAW264.7 [17] = test: Inhibition of LPS-induced p38 MAPK protein expression in mouse RAW264.7 cell at 2.5 uM preincubated for 3 hrs followed by LPS-stimulation and measured after 1 hr by Western blot analysis (reference value: 1.1); assay type: functional
RAW264.7 [18] = test: Inhibition of LPS-induced ERK phosphorylation in mouse RAW264.7 cell at 10 uM preincubated for 3 hrs followed by LPS-stimulation and measured after 1 hr by Western blot analysis (reference value: 6.92); assay type: cell-based
RAW264.7 [19] = test: Trans-suppression of NFkappaB in mouse RAW264.7 cells assessed as LPS-induced cytosol-p50 level at 2.5 uM preincubated for 3 hrs followed by LPS-stimulation and measured after 1 hr by Western blot analysis (reference value: 0.28); assay type: cell-based
RAW264.7 [20] = test: Antiinflammatory activity against mouse RAW264.7 cells assessed as inhibition of LPS-induced PGE2 production preincubated for 3 hrs followed by LPS-stimulation and measured after 24 hrs by ELISA; assay type: functional, cell-based
[21] = target: MAP kinase p38 (Mus musculus) (UniProt P47811+O08911+Q9WUI1+Q9Z1B7); test: Inhibition of LPS-induced p38 MAPK phosphorylation in mouse RAW264.7 cell at 10 uM preincubated for 3 hrs followed by LPS-stimulation and measured after 1 hr by Western blot analysis (reference value: 5.59); assay type: cell-based
RAW264.7 [22] = test: Trans-suppression of NFkappaB in mouse RAW264.7 cells assessed as LPS-induced cytosol-p50 level at 10 uM preincubated for 3 hrs followed by LPS-stimulation and measured after 1 hr by Western blot analysis (reference value: 0.28); assay type: cell-based
RAW264.7 [23] = test: Inhibition of LPS-induced JNK phosphorylation in mouse RAW264.7 cell at 10 uM preincubated for 3 hrs followed by LPS-stimulation and measured after 1 hr by Western blot analysis (reference value: 8.88); assay type: cell-based
RAW264.7 [24] = test: Antiinflammatory activity against mouse RAW264.7 cells assessed as reduction in LPS-induced IL-12 mRNA expression preincubated for 3 hrs followed by LPS-stimulation and measured after 12 hrs by RT-PCR analysis; assay type: functional, cell-based
RAW264.7 [25] = test: Antiinflammatory activity against mouse RAW264.7 cells assessed as reduction in LPS-induced TNF-alpha mRNA expression preincubated for 3 hrs followed by LPS-stimulation and measured after 12 hrs by RT-PCR analysis; assay type: functional, cell-based
RAW264.7 [26] = test: Trans-suppression of NFkappaB in mouse RAW264.7 cells assessed as LPS-induced cytosol-p65 level at 10 uM preincubated for 3 hrs followed by LPS-stimulation and measured after 1 hr by Western blot analysis (reference value: 0.09); assay type: cell-based
RAW264.7 [27] = test: Inhibition of LPS-induced ERK phosphorylation in mouse RAW264.7 cell at 2.5 uM preincubated for 3 hrs followed by LPS-stimulation and measured after 1 hr by Western blot analysis (reference value: 6.92); assay type: cell-based
RAW264.7 [28] = test: Inhibition of LPS-induced ERK protein expression in mouse RAW264.7 cell at 5 uM preincubated for 3 hrs followed by LPS-stimulation and measured after 1 hr by Western blot analysis (reference value: 1.13); assay type: functional

COc1cc(OC)c2c(O)c3c(=O)cc(C)oc3c(-c3c(O)cc4cc(O)c5c(=O)cc(C)oc5c4c3OC)c2c1 (atropisomer aS) [ASPERPYRONE A]
fold change (FC) (RAW264.7 [1]): 0.89 | fold change (FC) (RAW264.7 [2]): 8.73 | fold change (FC) (RAW264.7 [3]): 1.05 | inhibition (RAW264.7 [4]): Dose-dependent effect | fold change (FC) (RAW264.7 [5]): 0.31 | Activity (RAW264.7 [6]): Active | fold change (FC) (RAW264.7 [7]): 0.81 | Activity (RAW264.7 [8]): Non-Toxic | fold change (FC) (RAW264.7 [9]): 1.12 | fold change (FC) (RAW264.7 [10]): 1.99 | fold change (FC) (RAW264.7 [11]): 12.92 | fold change (FC) (RAW264.7 [12]): 3.28 | fold change (FC) (RAW264.7 [13]): 2.93 | fold change (FC) (RAW264.7 [14]): 2.3 | fold change (FC) (RAW264.7 [15]): 7.56 | fold change (FC) (RAW264.7 [16]): 1.54 | fold change (FC) (RAW264.7 [17]): 1.12 | fold change (FC) (RAW264.7 [18]): 7.03 | fold change (FC) (RAW264.7 [19]): 0.55 | inhibition (RAW264.7 [20]): Dose-dependent effect | fold change (FC) [21]: 5.66 | fold change (FC) (RAW264.7 [22]): 1.12 | fold change (FC) (RAW264.7 [23]): 3.08 | Activity (RAW264.7 [24]): Dose-dependent effect | Activity (RAW264.7 [25]): Dose-dependent effect | fold change (FC) (RAW264.7 [26]): 1.04 | fold change (FC) (RAW264.7 [27]): 7.21 | fold change (FC) (RAW264.7 [28]): 1.09
